Experimental data as given in PubChem BioAssay AID1919014 (Molecular Pharmacology Branch, DTP, NCI, 2023).

Test system: NCI-H1341 complex spheroids, percent test/control
Test: Anticancer human tumor NCI-H1341 cell line growth inhibition [AhR];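 note: spheroids exposed to agents for seven days before readout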
Conditions: for IC50: curve of first compound; for viability, T/C: stronger effect = lower value; active = viability on the fitted dose curve at most 10% of control; inactive = the rest
How it was run: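 Agents were dosed in half-log steps down from roughly clinical Cmax, or from 10 microM where Cmax was unknown, alone and with AhR antagonists. Read-out: percent test/control growth of tumor spheroids containing HUVEC and MSC stromal cells.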

[1] = second compound 0.1 µM, first compound 0.0316 µM
[2] = second compound 0.1 µM, first compound 0.1 µM
[3] = second compound 0.1 µM, first compound 0.316 µM
[4] = second compound 0.1 µM, first compound 1 µM
[5] = second compound 0.316 µM, first compound 0.0316 µM
[6] = second compound 0.316 µM, first compound 0.1 µM
[7] = second compound 0.316 µM, first compound 0.316 µM
[8] = second compound 0.316 µM, first compound 1 µM
[9] = second compound 1 µM, first compound 0.0316 µM
[10] = second compound 1 µM, first compound 0.1 µM
[11] = second compound 1 µM, first compound 0.316 µM
[12] = second compound 1 µM, first compound 1 µM
[13] = second compound 3.16 µM, first compound 0.0316 µM
[14] = second compound 3.16 µM, first compound 0.1 µM
[15] = second compound 3.16 µM, first compound 0.316 µM
[16] = second compound 3.16 µM, first compound 1 µM
[17] = second compound 10 µM, first compound 0.0316 µM
[18] = second compound 10 µM, first compound 0.1 µM
[19] = second compound 10 µM, first compound 0.316 µM
[20] = second compound 10 µM, first compound 1 µM

CC1COCCN1c1cc(-c2ccnn2C)c2ccnc(-c3ccn[nH]3)c2n1 (stereo not given) + Cc1cncc(-c2nc(NCCc3c[nH]c4ccccc34)c3ncn(C(C)C)c3n2)c1
0.0315 µM: IC50 (second compound 0.316 µM)
0.0354 µM: IC50 (second compound 1 µM)
< 0.00316 µM: IC50 (second compound 10 µM)
inactive: viability, T/C (second compound 0.1 µM, first compound 0.00316 µM) 95.1% | viability, T/C (second compound 0.1 µM, first compound 0.01 µM) 97% | viability, T/C [1] 57.8% | viability, T/C [2] 25.1% | viability, T/C [3] 25.7% | viability, T/C [4] 17.8% | viability, T/C (second compound 0.316 µM, first compound 0.00316 µM) 79.9% | viability, T/C (second compound 0.316 µM, first compound 0.01 µM) 94.4% | viability, T/C [5] 49.8% | viability, T/C [6] 26.8% | viability, T/C [7] 19.8% | viability, T/C [8] 18.7% | viability, T/C (second compound 1 µM, first compound 0.00316 µM) 77.5% | viability, T/C (second compound 1 µM, first compound 0.01 µM) 79.4% | viability, T/C [9] 51.6% | viability, T/C [10] 26.8% | viability, T/C [11] 23.9% | viability, T/C [12] 16.7% | viability, T/C (second compound 3.16 µM, first compound 0.00316 µM) 76% | viability, T/C (second compound 3.16 µM, first compound 0.01 µM) 66.2% | viability, T/C [13] 50% | viability, T/C [14] 32.1% | viability, T/C [15] 24.8% | viability, T/C [16] 16.9% | viability, T/C (second compound 10 µM, first compound 0.00316 µM) 21% | viability, T/C (second compound 10 µM, first compound 0.01 µM) 19% | viability, T/C [17] 16.5% | viability, T/C [18] 15.2% | viability, T/C [19] 12.2% | viability, T/C [20] 10.1%
0.0413 µM: IC50 (second compound 0.1 µM)
0.031 µM: IC50 (second compound 3.16 µM)

CC1COCCN1c1cc(C2(S(C)(=N)=O)CC2)nc(-c2ccnc3[nH]ccc23)n1 (stereo not given) + Cc1cncc(-c2nc(NCCc3c[nH]c4ccccc34)c3ncn(C(C)C)c3n2)c1
1.97 µM: IC50 (second compound 0.316 µM)
1.82 µM: IC50 (second compound 3.16 µM)
inactive: viability, T/C [1] 81.4% | viability, T/C [2] 85.2% | viability, T/C [3] 71.1% | viability, T/C [4] 71.5% | viability, T/C (second compound 0.1 µM, first compound 3.16 µM) 54.6% | viability, T/C (second compound 0.1 µM, first compound 10 µM) 21.9% | viability, T/C [5] 87.9% | viability, T/C [6] 84.1% | viability, T/C [7] 75.1% | viability, T/C [8] 62.1% | viability, T/C (second compound 0.316 µM, first compound 3.16 µM) 41.6% | viability, T/C (second compound 0.316 µM, first compound 10 µM) 20.6% | viability, T/C [9] 89.9% | viability, T/C [10] 83.6% | viability, T/C [11] 70.3% | viability, T/C [12] 75.1% | viability, T/C (second compound 1 µM, first compound 3.16 µM) 51.7% | viability, T/C (second compound 1 µM, first compound 10 µM) 22.8% | viability, T/C [13] 54.7% | viability, T/C [14] 66.3% | viability, T/C [15] 65.6% | viability, T/C [16] 62.9% | viability, T/C (second compound 3.16 µM, first compound 3.16 µM) 38.5% | viability, T/C (second compound 3.16 µM, first compound 10 µM) 25.6% | viability, T/C [17] 40.5% | viability, T/C [18] 30.7% | viability, T/C [19] 39.2% | viability, T/C [20] 29.1% | viability, T/C (second compound 10 µM, first compound 3.16 µM) 26.3% | viability, T/C (second compound 10 µM, first compound 10 µM) 13.9%
3.65 µM: IC50 (second compound 0.1 µM)
< 0.0316 µM: IC50 (second compound 10 µM)
3.45 µM: IC50 (second compound 1 µM)
